pIC50: −log10 of the molar value.
Legend:
[1] = system: SAM in HCT116 human colon carcinoma cell line engineered to delete the MTAP gene (MTAP −/−); assay: Cellular assay of target engagement (SAM) by LC-MS/MS; format: cell-based; conditions: Homo sapiens, HCT-116, 72 h, IC50 score, read-out: Cell 72 h SAM Inhibition (MTAP −/−; Example 276)
Method: Measurement of MAT2A activity in cells was made by direct quantitation of the abundance of the product of its enzymatic activity, SAM. Cancer cells were treated with candidate MAT2A inhibitors for a suitable incubation period, and the cells were then lysed using a reagent which quenched any further enzyme activity. Soluble metabolites including SAM were collected and SAM itself was directly measured from the lysate using quantitative LC-MS/MS.
A typical assay was performed using an HCT116 human colon carcinoma cell line which was genetically engineered to delete the MTAP gene (commercially available from Horizon Discovery). This cell line was utilized because it was determined that loss of the MTAP gene predicts sensitivity to MAT2A inhibitors. Cells were plated in 96-well dishes at appropriate cell density. Following 24 hours, cells were then treated with the candidate MAT2A inhibitor. Prior to addition to cells, the compound was first serially diluted in 100% DMSO, typically as a 3-fold serial dilution starting at 500× top dose with 10 dose points including DMSO only control. Compound was then transferred to a working stock plate in cell culture media by adding 5 μl of compound in DMSO to 495 μl of cell culture media. This working stock was then added to cells via a further 5-fold dilution, by adding 25 μl of working stock to 100 μl of cells in culture media. Following compound addition, cells were incubated at 37° C./5% CO2 for 72 hrs.
To quantitate SAM levels following compound treatment, cells were gently washed once in Ammonium Carbonate buffer (75 mM at pH 7.4), placed on dry ice, and lysed with metabolite extraction buffer (80% cold methanol and 20% water (v/v) with acetic acid at 1 M final concentration with 200 ng/mL deuterated d3-SAM as internal control). Following centrifugation at 4° C. at 3,200 rpm for 30 minutes, the supernatant was collected and stored at −80° C. until analysis by Liquid Chromatography with tandem Mass Spectrometry (LC-MS/MS). LC-MS/MS analysis was performed using an API6500 Mass Spectrometer (Sciex, Framingham, Mass., USA) operating in positive ion spray mode and equipped with a Waters UPLC Acquity (Waters, Milford, Mass., USA) BEH Amide column. Multiple Reaction Monitoring data was acquired for SAM and the d3-SAM standard, using a mass transition pair at m/z 399.2→250.1 and 402.2→250.1, respectively. In a typical LC-MS/MS analysis, the initial flow rate was 0.5 ml/min of 25% mobile phase A (acetonitrile and water at 5:95 (v/v) with 1% formic acid and 10 mM ammonium acetate) and 75% mobile phase B (acetonitrile and water at 95:5 (v/v) with 1% formic acid and 10 mM ammonium acetate), 0.2-0.5 minutes with 75%-35% mobile phase B, 25%-65% mobile phase A, at 0.5 min 65% mobile phase A and 35% mobile phase B, 1.0-1.1 minutes with 35%-75% mobile phase B, 65%-25% mobile phase A, at 1.1 min 25% mobile phase A and 75% mobile phase B with a total run time of 1.5 minutes.

HCT116 MTAP+/+ = assay: Inhibition of cellular proliferation (Cell Titer Glo), HCT116 MTAP+/+; format: cell-based, human; conditions: Homo sapiens, HCT-116, 96 h, 4 days, IC50 score, read-out: 4 Day Relative Growth Inhibition (MTAP +/+; Example 277)
Method: (§1) Test compound impact on cancer cell growth was assessed by treating cancer cells with compound for 4 days and then measuring proliferation using an ATP-based cell proliferation readout (Cell Titer Glo, Promega Corporation).
(§2) In a typical assay an isogenic pair of HCT116 human colon carcinoma cell lines which vary only in MTAP deletion status (HCT116 MTAP+/+ and HCT116 MTAP−/−) were plated in 96-well dishes at appropriate cell density. Following 24 hours, cells were then treated with the candidate MAT2A inhibitor. Prior to addition to cells, the compound was first serially diluted in 100% DMSO, typically as a 3-fold serial dilution starting at 500× top dose with 10 dose points including DMSO only control. Compound was then transferred to a working stock plate in cell culture media by adding 5 μl of compound in DMSO to 495 μl of cell culture media. This working stock was then added to cells via a further 5-fold dilution, by adding 25 μl of working stock to 100 μl of cells in culture media. Following compound addition, cells were incubated at 37° C./5% C02 for 4 days.
(§3) To measure inhibition of cellular proliferation, cells were allowed to equilibrate to room temperature for 30 minutes, and were then treated with 125 μl of Cell Titer Glo reagent. The plate was then covered with aluminum foil and shaken for 15 minutes to ensure complete mixing and full cell lysis. Luminescent signal was then measured using a plate-based luminometer Veritas version 1.9.2 using ATP standard curve to confirm assay reproducibility from run to run. This luminescence measure was converted to a proliferation index by subtracting from each data point the ATP luminescence signal measured from a bank (no cells) well and dividing by the ATP luminescence signal measured in 0.2% DMSO control well adjusted for signal in blank well. Compound activity was then represented as a percentage change in proliferation relative to a within-plate DMSO control against log10 of compound concentration in molar (M) units.

MAT2A homodimer = molecular target: T1, MAT2A homodimer (Homo sapiens, UniProt P31153); assay: Biochemical assay: inhibition of MAT2A (phosphate release, PiColorLock Gold); conditions: MAT2A IC50 score; read-out: Enzyme Inhibition (Example 275)
T1 construct: inferred from Ni sepharose purification and imidazole elution; made in house; host or cells: Sf9 insect cells, recombinant baculovirus (Bac to Bac, pFASTBAC1)
Summary of the method: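 Phosphate formed alongside SAM was read with PiColorLock Gold and quantified against a potassium phosphate standard curve. Reactions ran 60 min at 25 °C after adding a substrate mix of 500 μM ATP and 400 μM L-methionine (mix concentrations). Compound had first been preincubated 60 min with recombinant Sf9-derived MAT2A homodimer ([…]) in pH 8.0 Tris buffer containing MgCl2, KCl, EDTA and BSA.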

HCT116 MTAP−/− = assay: Inhibition of cellular proliferation (Cell Titer Glo), HCT116 MTAP−/−; format: cell-based, human; conditions: Homo sapiens, HCT-116, 96 h, 4 days, IC50 score, read-out: 4 Day Relative Growth Inhibition (MTAP −/−; Example 277)
Method: as §1, §2, §3

T1 sequence (P31153 whole entry): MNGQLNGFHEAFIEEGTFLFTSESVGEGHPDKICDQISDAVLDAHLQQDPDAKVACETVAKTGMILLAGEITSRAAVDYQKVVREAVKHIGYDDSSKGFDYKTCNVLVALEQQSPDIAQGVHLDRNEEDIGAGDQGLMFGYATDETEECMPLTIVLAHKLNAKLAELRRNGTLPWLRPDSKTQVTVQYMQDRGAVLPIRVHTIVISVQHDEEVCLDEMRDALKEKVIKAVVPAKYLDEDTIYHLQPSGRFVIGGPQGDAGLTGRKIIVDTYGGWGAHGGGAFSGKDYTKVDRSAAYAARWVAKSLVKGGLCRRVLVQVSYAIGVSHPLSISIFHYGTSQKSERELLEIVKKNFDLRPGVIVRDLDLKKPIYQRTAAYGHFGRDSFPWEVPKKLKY

pIC50 [1]	pIC50 (HCT116 MTAP+/+)	pIC50 (MAT2A homodimer)	pIC50 (HCT116 MTAP−/−)	SMILES
6.00 to 7.00	5.00 to 7.00	> 7.00	5.00 to 7.00	Cn1cc2cc(-n3cc4ccc(CCC(F)(F)F)nc4c(-c4ccc(Cl)cc4)c3=O)ccc2n1 [Example 138-A, 8-(4-chlorophenyl)-6-(2-methyl-2H-indazol-5-yl)-2-(3,3,3-trifluoropropyl)-1,6-naphthyridin-7(6H)-one]
> 7.00	< 5.00	> 7.00	5.00 to 7.00	O=c1c(-c2ccc(Cl)cc2)c2nc(NCC(F)(F)F)ncc2cn1-c1ccc2ncccc2c1 [Example 139, 8-(4-chlorophenyl)-6-(quinolin-6-yl)-2-((2,2,2-trifluoroethyl)amino)pyrido[4,3-d]pyrimidin-7(6)-one]
> 7.00	5.00 to 7.00	> 7.00	> 7.00	Cn1cc2cc(-n3cc4ncc(OCC(F)F)nc4c(-c4ccc(OC(F)F)cc4)c3=O)ccc2n1 [Example 139-A, 2-(2,2-difluoroethoxy)-8-(4-(difluoromethoxy)phenyl)-6-(2-methyl-2H-indazol-5-yl)pyrido[3,4-b]pyrazin-7(6H)-one]
> 7.00	< 5.00	> 7.00	> 7.00	CCOc1cnc2cn(-c3ccc4nn(C)cc4c3)c(=O)c(-c3ccc(OC)cc3)c2n1 [Example 140-A]
> 7.00	< 5.00	> 7.00	> 7.00	CCn1cnc2ccc(-n3cc4cnc(NCC(F)(F)F)nc4c(-c4ccc(Cl)cc4)c3=O)cc21 [Example 141, 8-(4-chlorophenyl)-6-(1-ethyl-1H-benzo[d]imidazol-6-yl)-2-((2,2,2-trifluoroethyl)amino)pyrido[4,3-d]pyrimidin-7(6H)-one]
> 7.00	5.00 to 7.00	> 7.00	> 7.00	COc1ccc(-c2c(=O)n(-c3ccc4nn(C)cc4c3)cc3ncc(OCC(F)F)nc23)cc1 [Example 141-A]
6.00 to 7.00	< 5.00	> 7.00	5.00 to 7.00	CCOc1cnc2cn(-c3ccc4ncccc4c3)c(=O)c(-c3ccc(Cl)cc3)c2n1 [Example 142-A]
6.00 to 7.00	< 5.00	> 7.00	5.00 to 7.00	COc1ccc(-c2c(=O)n(-c3ccc4nccn4c3)cc3cnc(NCC(F)(F)F)nc23)cc1 [Example 143, 6-(imidazo[1,2-a]pyridin-6-yl)-8-(4-methoxyphenyl)-2-((2,2,2-trifluoroethyl)amino)pyrido[4,3-d]pyrimidin-7(6H)-one]
> 7.00	5.00 to 7.00	> 7.00	> 7.00	Cn1cc2cc(-n3cc4ncc(OCC(F)F)nc4c(-c4ccc(OC(F)(F)F)nc4)c3=O)ccc2n1 [Example 143-A]
6.00 to 7.00	< 5.00	> 7.00	5.00 to 7.00	COc1ccc(-c2c(=O)n(-c3ccc4nccnc4c3)cc3cnc(NCC(F)(F)F)nc23)cc1 [Example 144, 8-(4-methoxyphenyl)-6-(quinoxalin-6-yl)-2-((2,2,2-trifluoroethyl)amino)pyrido[4,3-d]pyrimidin-7(6H)-one]
> 7.00	5.00 to 7.00	> 7.00	5.00 to 7.00	Cn1cc2cc(-n3cc4ncc(OCC(F)F)nc4c(-c4ccc(OC(F)F)nc4)c3=O)ccc2n1 [Example 144-A]
> 7.00	< 5.00	> 7.00	> 7.00	COc1ccc(-c2c(=O)n(-c3ccc4c(c3)N(C)CCO4)cc3cnc(NCC(F)(F)F)nc23)cc1 [Example 145, 8-(4-methoxyphenyl)-6-(4-methyl-3,4-dihydro-2H-benzo[b][1,4]oxazin-6-yl)-2-((2,2,2-trifluoroethyl)amino)pyrido[4,3-d]pyrimidin-7(6H)-one]
> 7.00	5.00 to 7.00	> 7.00	> 7.00	CCOc1cnc2cn(-c3ccc4nn(C)cc4c3)c(=O)c(-c3ccc(OC(F)F)cc3)c2n1 [Example 145-A]
> 7.00	5.00 to 7.00	> 7.00	> 7.00	Cn1cc2cc(-n3cc4ncc(OCC(F)F)nc4c(-c4ccc(Cl)cc4)c3=O)ccc2n1 [Example 146-A]
6.00 to 7.00	< 5.00	> 7.00	5.00 to 7.00	COc1ccc(-c2c(=O)n(-c3ccc4c(c3)CCO4)cc3cnc(NCC(F)(F)F)nc23)cc1 [Example 147, 6-(2,3-dihydrobenzofuran-5-yl)-8-(4-methoxyphenyl)-2-((2,2,2-trifluoroethyl)amino)pyrido[4,3-d]pyrimidin-7(6H)-one]
> 7.00	< 5.00	> 7.00	> 7.00	CCOc1cnc2cn(-c3ccc4nn(C)cc4c3)c(=O)c(-c3ccc(Cl)cc3)c2n1 [Example 147-A]
> 7.00	5.00 to 7.00	> 7.00	> 7.00	Cn1cc2cc(-n3cc4cnc(NCC(F)(F)F)nc4c(-c4ccc(OC(F)F)cc4)c3=O)ccc2n1 [Example 148, 8-(4-(difluoromethoxy)phenyl)-6-(2-methyl-2H-indazol-5-yl)-2-((2,2,2-trifluoroethyl)amino)pyrido[4,3-d]pyrimidin-7(6H)-one]
> 7.00	5.00 to 7.00	> 7.00	5.00 to 7.00	CCOc1cnc2cn(-c3ccc4nn(C)cc4c3)c(=O)c(-c3ccc(OC(F)(F)F)nc3)c2n1 [Example 148-A]
> 7.00	5.00 to 7.00	> 7.00	5.00 to 7.00	CCOc1cnc2cn(-c3ccc4nn(C)cc4c3)c(=O)c(-c3ccc(OC(F)F)nc3)c2n1 [Example 149-A]
> 7.00	5.00 to 7.00	> 7.00	5.00 to 7.00	Cc1nc2ccc(-n3cc4cnc(NCC(F)(F)F)nc4c(-c4ccc(OC(F)F)cc4)c3=O)cc2s1 [Example 150, 8-(4-(difluoromethoxy)phenyl)-6-(2-methylbenzo[d]thiazol-6-yl)-2-((2,2,2-trifluoroethyl)amino)pyrido[4,3-d]pyrimidin-7(6H)-one]
